Entries after “also recorded” stand apart in the source; their conditions may differ.
Columns and labels:
Strain mx-2 = assay: Oxygen uptake rate, strain mx-2; assay type: cell-based, bacterial strain mx-2
Protocol: (§1) Experiments were conducted to examine the range of compounds degraded by enzymes present in the metabolic pathways of the strains established on meta- and para-xylene, as described in Example 7. […] The compounds listed Table 7 from benzoate through protocatechuate are enzymatic pathway intermediates in the oxidation of aromatic compounds.

Strain px-2 = assay: Oxygen uptake rate, strain px-2; assay type: cell-based, bacterial strain px-2
Protocol: as §1

isolated soil consortia = assay: Degradability / utilization as growth substrate by isolated soil consortia; assay type: cell-based; details: utilization as carbon source for growth and energy
Source text: (§2) Using a mixed consortium of organisms isolated in liquid culture from soil samples removed from a site saturated with gasoline for a number of years, the model compounds from each of the represented species in furniture exhaust gases were examined for degradability. Degradability actually refers to the ability of the microorganisms to utilize a compound as a carbon source for growth and energy. Different carbon sources are preferred by different organisms, so it was important to determine which model compounds were acceptable for the consortium which was isolated. Following completion of these initial studies, organism subcultures were generated for specific compounds.

[1] = system: initial gasoline consortium; assay: Enrichment of the initial gasoline consortium in individual flasks; assay type: cell-based, organisms isolated from gasoline-saturated soil samples
Source text: as §2

mx-2 [2] = assay: Growth rate of mx-2 strain in shake flask; assay type: cell-based, mx-2 bacterial strain; details: for effect on the growth rate: mx-2 mixed carbon source study
Source text: as §2, with “Different carbon sources are preferred by different organisms, so it was important to determine which model compounds were acceptable for the consortium which was isolated.” left out
(§3) Maximum growth rates for the isolated consortia were determined in shake flask studies containing minimal media and supplemented with the appropriate compound. Concentrations of volatile organic compounds added to the flasks were 400 ppm (mole/mole) for MEK and MIBK, 150 ppm for m-xylene and p-xylene, and 2000 ppm for IBA and methanol.
(§4) The effects of carbon source composition were examined for the mx-2 bacterial strain. mx-2 is one of the strains of microorganism isolated from soil samples exposed to gasoline as described in Example 7.
(§5) In addition to examining the effects of ethanol and methanol, the impact of octanol on microorganism growth was determined. This investigation was necessary since some octanol (stripping fluid) will be delivered to the membrane bioreactor with the VHAPs/VOCs.

mx-2 [3] = assay: m-Xylene degradation rate of mx-2 strain; assay type: cell-based, mx-2 bacterial strain
Source text: as §2, with “Different carbon sources are preferred by different organisms, so it was important to determine which model compounds were acceptable for the consortium which was isolated.” left out
as §3, §4, §5

[4] = Partition coefficient of solute between stripping fluid (octanol) and air; assay type: physicochemical
Protocol: Before beginning work with the LIQUI-CEL® membrane modules presented in Example 2, partition coefficient experiments were performed to investigate the equilibrium distribution of m-xylene, MEK, and MIBK between phases for stripping fluid/air. Octanol was chosen as the stripping fluid because data from previously conducted studies was readily available for comparison.
(§6) Partition coefficients are defined as a measure of the affinity a solute has for one phase over another at equilibrium. Therefore, they are an integral part of equations related to membrane contactor design and operation. Partition coefficients are expressed as a ratio of concentrations; the general form being (concentration in solvent)/(concentration in air).
For these studies, two forms of the partition coefficient were used. The first was the general form, which indicated the level of driving force for mass transfer (a value greater than 1 indicates sufficient driving force). The second form was defined as 1/(general form), or 1/Pgen, which was used in system operating equations.

[5] = Partition coefficient of solute between octanol and water; assay type: physicochemical; details: 31 °C
isolated consortia = assay: Growth rate of cultures on o-xylene; assay type: cell-based, bacterial cultures isolated from soil samples
Source text: as §2
as §3, with “Pure bacterial cultures (single identifiable organisms) were established on meta- and para-xylene; the other cultures consisted of approximately three different bacterial strains each. Maximum” for “Maximum”

[6] = Partition coefficient of m-xylene between natural oils and air; assay type: physicochemical; details: 31 °C
Source text: as §6
An additional set of experiments was run to evaluate stripping fluids other than octanol. This was due mainly to the relatively high cost of commercially available octanol. Partition coefficients were determined for m-xylene in several natural oils at 31° C. […] The purchase cost of these oils is roughly one-quarter that of octanol.

[7] = mx-2 on m-xylene, + 500 ppm octanol

Structure (SMILES)	Oxygen Uptake (Strain mx-2) [μmol/min-mg total protein]	Oxygen Uptake (Strain px-2) [μmol/min-mg total protein]	Degradability (isolated soil consortia)	cultures capable of degrading compound after enrichment [1]	other results
Cc1cccc(O)c1O [3-Methylcatechol]	1.17	1.50			
CCC(C)=O [MEK, methyl ethyl ketone]			Yes	cultures capable of degrading each compound were developed	
CC(C)=O [Acetone]			Yes		
C=Cc1ccccc1 [Styrene]	0.55	0.47	Yes		
CC(C)CO [Isobutyl alcohol]			Yes		
O=C(O)c1ccccc1 [Benzoate]	0.66	2.34			
CCCCCCCCO [octanol]					Specific Growth Rate (mx-2 [2]; 500 ppm octanol (without "+")): 0.20 h⁻¹; effect on the growth rate (mx-2 [2]): no effect; Specific Growth Rate (mx-2 [2]; [7]): 0.46 h⁻¹; Degradation Rate (mx-2 [3]; [7]): 3.60 * 10^-10 mg/(hr - cell); effect on the degradation rate (mx-2 [3]; test microorganism strain grown on m-xylene): no effect
Cc1ccc(C)cc1 [p-Xylene]	1.21	0.34	Yes	cultures capable of degrading each compound were developed	
CC(=O)CC(C)C [MIBK, methyl isobutyl ketone]			Yes	cultures capable of degrading each compound were developed	Partition Coef. [oct]/[air] ([4]; 6 °C): .infin.; Partition Coef. [oct]/[air] ([4]; 22 °C): 22,045; Partition Coef. [oct]/[air] ([4]; 31 °C): 8,721; Partition Coef. [oct]/[water] [5]: 2.1
c1ccccc1 [Benzene]	0.27	0.13			
CC(=O)OCC(C)C [isobutyl acetate]				cultures capable of degrading each compound were developed	
Oc1ccccc1O [Catechol]	1.23	5.19			
CCCCO [n-Butyl alcohol]			Yes		
CCO [Ethanol]			Yes		effect on the growth rate (mx-2 [2]): negligible; Specific Growth Rate (mx-2 [2]; mx-2 on m-xylene, + 0.2% EtOH): 0.40 h⁻¹; lowering of the maximum growth rate (mx-2 [2]; mx-2 on m-xylene, in presence of ethanol): 10%; reduction of the degradation rate of m-xylene (mx-2 [3]; mx-2, in presence of ethanol): about 30%; Degradation Rate (mx-2 [3]; mx-2 on m-xylene, + 0.2% EtOH): 2.34 * 10^-10 mg/(hr - cell)
CO [Methanol, methanol]			Yes	cultures capable of degrading each compound were developed	effect on the growth rate (mx-2 [2]): negligible; also recorded: no effect; Specific Growth Rate (mx-2 [2]; mx-2 on m-xylene, + 0.2% MeOH): 0.45 h⁻¹; Degradation Rate (mx-2 [3]; mx-2 on m-xylene, + 0.2% MeOH): 3.57 * 10^-10 mg/(hr - cell)
Cc1ccccc1C [o-Xylene]	0.31		Yes		growth rate compared with other compounds (isolated consortia): relatively slow compared with that on other compounds
Cc1cccc(C)c1 [m-xylene]	0.82	0.31	Yes	cultures capable of degrading each compound were developed	Partition Coef. [oct]/[air] ([4]; 6 °C): 9,865; Partition Coef. [oct]/[air] ([4]; 22 °C): 7,978; Partition Coef. [oct]/[air] ([4]; 31 °C): 7,703; form 2 partition coefficient, Pair/oct (1/general form) ([4]; air/stripping fluid separation unit): 0.00014; Partition Coef. [oct]/[water] [5]: 1,021; Specific Growth Rate (mx-2 [2]; mx-2 (strain grown on m-xylene, 150 ppm)): 0.46 hr^1; Partition Coef. [solvent]/[air] ([6]; corn oil): 8,283; Partition Coef. [solvent]/[air] ([6]; mineral oil): 7,284; Partition coefficients in natural oils versus octanol ([6]; natural oils evaluated): comparable to those for octanol; Partition Coef. [solvent]/[air] ([6]; sunflower seed oil): 8,244; Degradation Rate (mx-2 [3]; mx-2 (grown on m-xylene, 150 ppm)): 3.60 * 10^-10 mg/(hr - cell)
Cc1ccccc1 [Toluene]	0.18	0.17	Yes		
Cc1ccc(O)c(O)c1 [4-Methylcatechol]	0.92	4.35			
C=O [Formaldehyde]			Yes		
